According to patent publication US7605175B2, “Inhibitors of cyclin-dependent kinases, compositions and uses related thereto” (GPC Biotech AG, priority 2001, dated 2009):

Assays:
HIV-1 ROJO = assay: Antiviral activity in PBMCs infected with HIV-1 ROJO (reverse transcriptase); format: cell-based
Method: (§1) The activity of the certain compounds of the invention was evaluated in peripheral blood mononuclear cells (PBMCs) infected with the low passage, clinical isolate HIV-1 ROJO to generate a measure of the efficacy of these compounds in acutely infected cells. The use of these normal human cells allows an estimate of the therapeutic index of these compounds to be made. Fresh PBMCs from two donors were pooled and stimulated with PHA-P for 48-72 hours. The cells were then cultured in the presence of IL-2 to maintain the cell division initiated by the mitogenic signal. The virus was added at a multiplicity of infection of 0.1. The cells were cultured for 7 days post infection prior to the evaluation of efficacy. Viral replication was measured by the level of reverse transcriptase activity in the supernatant and cytotoxicity was measured with the MTS assay.

[1] = system: peripheral blood mononuclear cells (PBMCs); assay: Cytotoxicity in PBMCs (MTS assay); format: cell-based, human; conditions: read-out: TC50: 50% cytoxicity (MTS)
Method: as §1

[2] = system: NCI panel of 60 cell lines; assay: NCI panel of human tumor cell lines (SRB), Mean-Graph Mid-point; format: cell-based; conditions: read-out: NCI panel MG-MID (Mean-Graph Mid-point, average IC50 over the whole cell panel)
Text: (§2) The evaluation of compounds at the National Cancer Institute in their panel of 60 cell lines provides a wealth of information regarding efficacy in a wide range of tumor types and genetic backgrounds. Included within this panel are cell lines derived from leukemia, melanoma and cancers of the lung, colon, brain, ovary, breast, prostate and kidney. Use of this panel provides a measure of the efficacy of compounds in cells with alterations in many genes that are associated with neoplastic transformation including p53 and Her2/Neu as well as those involved in metabolism and those which confer multi-drug resistance. The data generated in these cell lines with the protocol described below can be used to evaluate the activity of compounds.
Cells were grown in RPMI-1640 10% FCS and plated in 96 well micro-titer plates at densities ranging from 5,000 to 40,000 cells/well. The plates were incubated for 24 hours at 37° C., 5% CO2 for 24 hours. Media containing twice the desired final concentration of the compound (5 doses spanning 4 logs) was prepared and 100 μl was added to each well containing 100 μl media plus cells to yield the desired final concentration. The plates were then incubated for an additional 48 hours.
The effect of the compound on cellular viability was determined with the Sulforhodamine B (SRB) assay, which measures total protein. Cells were fixed with cold TCA to a final concentration of 10% and incubated at 4° C. for 60 minutes. The supernatant was discarded and the plates were washed five times with water and air-dried. SRB solution at […] in 1% acetic acid was added to each well and the plates were incubated for 10 minutes at room temperature. The plates were washed five times with 1% acetic acid and air-dried. The bound stain was solubilized with 10 mM trizma base and the absorbance was read on a plate reader at […].

[3] = system: adriamycin resistant cell line (ADR-res); assay: NCI panel (SRB), adriamycin resistant cell line; format: cell-based; conditions: Homo sapiens
Text: as §2
Cells were grown in RPMI-1640 10% FCS and plated in 96 well micro-titer plates at densities ranging from 5,000 to 40,000 cells/well. The plates were incubated for 24 hours at 37° C., 5% CO2 for 24 hours. […]
The effect of the compound on cellular viability was determined with the Sulforhodamine B (SRB) assay, which measures total protein. […] The bound stain was solubilized with 10 mM trizma base and the absorbance was read on a plate reader at […].

HCT-116 cells [4] = assay: Calcein AM viability assay, HCT-116; format: cell-based; conditions: Homo sapiens
Outline: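 Cells plated (1,000 HCT-116 in RPMI-1640/10% FCS; 4,000 IMR90 in MEM-alpha/10% FCS), adhered overnight, then given 7 doses of compound at 0-250 nM for 72 h at 37 °C. Viability read by Calcein AM fluorescence (ex 485, em 530) after 75 min; IC50 derived.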

HCT-116 cells [5] = assay: BrdU incorporation assay; format: cell-based; conditions: Homo sapiens, read-out: Brd U, concentration that inhibits BrdU incorporation by 50%
Method: This method measured the percentage of cells that incorporated the nucleotide analog, BrdU, into newly synthesized DNA as cells progressed through the S phase of the cell cycle. The inhibition of BrdU incorporation was used as a measure of a Cdk inhibitor's effect on S phase progression and DNA replication.
3 sets of HCT-116 cells (100,000 cells/set) were plated in T25 flasks and incubated with a test compound as above. Analysis was done at 24, 48, and 72 hours. BrdU was added to each T-25 flask from a stock of 10 mg/ml to a final concentration of 10 μM and the cells were incubated for an additional 16-18 hours at 37° C. The cells were then prepared for flow cytometric analysis according to manufacturer's protocol (BrdU Flow kit, BD-Pharmingen catalogue #2354KK) as follows:
Cells were harvested (adherent and floating) from the T25 flasks directly into Falcon 12×75 flow cytometric tubes as above followed by fixation and permeabilization with the addition of 100 μl of Cytofix/Cytoperm buffer (30 minutes, room temperature). The cells were then washed with 1 ml of Perm Wash buffer and the cell pellets were resuspended in 100 μl Cytoperm Plus buffer and incubated on ice for 10 minutes. The cells were then washed again with 1 ml of Perm Wash buffer and the fixation was repeated in 100 μl of Cytofix/Cyto Perm buffer for 10 minutes at room temperature. The cells were then washed with 1 ml of Perm Wash buffer. The cells were next treated for one hour at 37° C. with 100 μl DNase to expose incorporated BrdU followed by another wash step with 1 ml of Perm Wash buffer. […] Cells were protected from light and incubated at room temperature for 20-30 minutes. Following the incubation, the cells were washed with 1 ml of Perm Wash buffer, resuspended in 300 μl of 2% FBS in PBS, and analyzed on the flow cytometer. Results are presented in Table 2 as the concentration of compound (μM) that inhibits of BrdU incorporation by 50%.

arrested HCT-116 cells = assay: Arrested cell assay, arrested HCT-116 tumor cells; format: cell-based; conditions: Homo sapiens, serum-starved arrested cells, 72 hours, read-out: Arrested cell assay HCT IC50
Method: (§3) Cyclin-dependent kinase (Cdk) activity is required to promote the progression of cells through distinct phases of the cell division cycle. The proliferation of normal, non-transformed, cells in culture requires the presence of growth factors, the removal of which, through serum deprivation, leads to a loss of Cdk activity and consequent exit from the cell cycle as cells enter the quiescent phase, G0.
HCT-116 cells were plated in triplicate for each compound concentration to be tested in RPMI 1640 media containing 10% fetal calf serum at a density of either 200 or 2,000 cells per well in 24 well dishes, and incubated overnight at 37° C., 5% CO2. The media from the plate containing 2,000 cells per well was removed, cells were washed once with serum free media and 1 ml of serum free media was placed on cells. The plates containing cells both in the presence and absence of serum were incubated for 6 additional days.
(§4) The cells are incubated in the presence of the compounds for 72 hours (3 days) at 37° C. […] Cycling and arrested HCT-116 cells as well as cycling IMR90 cells were exposed to a panel of 6 doses ranging from 5 to 250 nM. For arrested normal cells, the range of doses was increased to 50 nM to 25 μM, to compensate for the expected decrease in activity.
(§5) The effect of 72 hours of compound exposure on cellular viability was assessed in the Calcein AM assay. Calcein AM is a fluorescent substrate of intracellular esterases that are only active in viable cells. Cleavage of the substrate thus provides a measure of viability, which is proportional to cell number.
(§6) A Calcein AM stock solution was prepared by dissolving a 50 μg aliquot (Molecular Probes catalogue # C3100) in 50 μl DMSO. The tube was incubated at room temperature for approximately 10 minutes to ensure that the Calcein had dissolved completely. The calcein was diluted into 10 ml PBS to prepare the final solution, which was protected from light.
(§7) The media was aspirated off the cells, which were then washed twice with 1 ml PBS to remove the PBS completely from cells by aspiration. 0.5 ml of the Calcein/PBS solution was transferred by pipette into each well. The plates were incubated at 37° C. for 75 minutes (protected from light) and read on a fluorescent plate reader (excitation 485/20 and emission 530/25).

arrested IMR90 cells = assay: Arrested cell assay, arrested IMR90 normal cells; format: cell-based; conditions: Homo sapiens, IMR-90; serum-starved arrested cells, 72 hours; read-out: Arrested cell assay IMR90 IC50
Method: as §3
IMR90 cells were plated in triplicate for each compound concentration to be tested in MEM-A media containing 10% fetal calf serum at a density of either 2,000 or 20,000 cells per well in 24-well dishes and incubated overnight at 37° C., 5% CO2. The media was removed from the 20,000 cell-per-well dish, cells were washed once with serum-free media, and serum-free media was placed on cells. The plates containing cells both in the presence and absence of serum were incubated for 3 additional days.
as §4, §5, §6, §7

[6] = target: protein kinase C (mixed isozymes); assay: Protein kinase C TCA precipitation assay; format: biochemical, rat; conditions: Table 5; read-out: PKC IC50
Method: Enzymes: Cdc2/cyclin B was obtained from commercial sources. Cdk2/his-cyclin Eshort was expressed in Sf9 cells. Cdk2/cyclin A, cdk4/cyclin D1, and cdk6/cyclin D2 were expressed in Sf9 cells. Protein kinase A (catalytic subunit, from bovine heart) and protein kinase C (mixed isozymes from rat brain) were obtained from commercial sources.
Protein kinase C and protein kinase A were assayed using a TCA precipitation assay with Histone H1 as a substrate. For protein kinase A, the final assay contained 50 mM Tris, 10 mM MgCl2, 1 mM dithiothreitol, pH 7.5, 12 μM adenosine triphosphate, 10% (v/v) dimethylsulfoxide (from compounds), 20 μg Histone H1, 2 μCi [γ-^32P] adenosine triphosphate, 0.2 U protein kinase A in a 100 μL assay. A protein kinase C assay contained 50 mM Tris, 10 mM MgCl2, 1 mM dithiothreitol, 0.8 mM CaCl2, pH 7.5, 5 μM adenosine triphosphate, 10% (v/v) dimethylsulfoxide (from compounds), 20 μg Histone H1, 2 μCi [γ-^32P] adenosine triphosphate, 0.01 U protein kinase C in a 50 μL assay. The assays were started by the addition of enzyme, allowed to react for 10 min at 30° C., and stopped by adding 0.4 volumes of 237 mM disodium ethylenediamine tetraacetate, 105 mM adenosine triphosphate, pH 8.0. […] The filters were washed ten times with 25% (w/v) trichloroacetic acid, and the amount of incorporated [^32P]phosphate was determined by adding 100 μl Microscint and scintillation counting.

IMR90 cells = assay: Calcein AM viability assay, IMR90; format: cell-based; conditions: Homo sapiens, IMR-90, 72 h, read-out: IMR90 viability IC50
Method: The potency of Cdk inhibitors, as measured by loss of cellular viability, was determined with the Calcein AM assay (Molecular Probes). Calcein AM is a substrate of intracellular esterases, which is cleaved only in viable cells to generate a fluorescent product that can be quantified with a fluorescent plate reader. The fluorescent signal is proportional to the number of viable cells, and thus loss of signal in response to the exposure of cells to Cdk inhibitors correlates with a loss of viability. This assay can distinguish cell cycle arrest, in which cells may still by viable, from loss of viability and is thus well suited for the evaluation of Cdk inhibitors. A compound that is a potent cytotoxic, may cause significant loss of cell viability in such assay.
Cellular IC50's were determined in the human colorectal carcinoma cell line, HCT-116, and the normal human fibroblast, IMR90. Protein adjusted IC50's were also determined in HCT-116.
HCT-116 or IMR90 cells were recovered from sub-confluent plates by trypsinization and 1,000 or 4,000 cells, respectively, were plated in 24-well dishes and incubated overnight at 37° C., 5% CO2. […]
A 5 μM Calcein AM solution was prepared by dissolving a […] aliquot of Calcein (Molecular Probes catalog # C3100) in 50 μl DMSO. […] (protected from light) and the fluorescent signal was read on a fluorescent plate reader (excitation 485/20 and emission 530/25).

[7] = HCT-116, 72 h, read-out: HCT-116 IC50 Viability

For `Cc1cn([C@H]2C[C@H](N=[N+]=[N-])[C@@H](CO)O2)c(=O)[nH]c1=O` [AZT, reference compound], the “TI: TC50/IC50” value (HIV-1 ROJO) was greater than 100, the IC50 (HIV-1 ROJO; read-out: IC50: 50% inhibition of virus replication measured by reverse transcriptase levels in the supernatant, HIV-1 ROJO, 7 days post infection) was less than 10 nM and the CC50 [1] was greater than 1000 nM.
For `CC(C)c1nn(-c2c(Cl)cc(Cl)cc2Cl)c2nc(Cc3ccc(OCCN4CCOCC4)cc3)[nH]c(=O)c12` [A], the IC50 [2] was less than 100 nM, the IC50 [3] was less than 1000 nM and the IC50 (HCT-116 cells [4]; HCT-116, plus 1 mg/ml alpha acidic glycoprotein and 45 mg/ml human serum albumin, read-out: HCT-116 IC50 Protein adjusted) was less than 1000 nM.
Compound `CC(C)N1CCN(CCOc2ccc(-c3[nH]nc4c3C(=O)c3c(NC(=O)NN5CCOCC5)cccc3-4)cc2)CC1` [E] has an IC50 (HCT-116 cells [5]; HCT-116, 24 h) of less than 10 nM, an IC50 (HCT-116 cells [5]; HCT-116, 48 h) of less than 100 nM and an IC50 (arrested HCT-116 cells) of less than 100 nM. The IC50 (arrested IMR90 cells) was greater than 100 nM and the IC50 [6] was less than 10000 nM.
With `O=C(Nc1cccc2c1C(=O)c1c-2n[nH]c1-c1ccc(OP(=O)(O)O)cc1)NN1CCOCC1` [J] the IC50 (HCT-116 cells [4]; [7]) was less than 1000 nM and the IC50 (IMR90 cells) was less than 100 nM.
With `CC(C)c1nn(-c2c(Cl)cccc2Cl)c2nc(Cc3ccc(OP(=O)(O)O)cc3)[nH]c(=O)c12` [Compound B] the IC50 (HCT-116 cells [4]; [7]) was less than 1000 nM and the IC50 (IMR90 cells) was less than 1000 nM.
